Assay results: patent US20080146538A1, “Compounds 614” (priority 2006, published 2008)
Counter-ions that a name gives are not always drawn.

Columns and labels:
[1] = target: hERG-encoded potassium channel (Homo sapiens, UniProt Q12809); assay: Activity against hERG (planar-array-based voltage clamp); format: cell-based
Excerpt: The activity of compounds according to formula I against the hERG-encoded potassium channel can be determined according to Kiss L, et al. Assay Drug Dev Technol. 1 (2003), 127-35: “High throughput ion-channel pharmacology: planar-array-based voltage clamp”.

human NK1 receptor = target: T1, human NK1 receptor (Homo sapiens, UniProt P25103); assay: FLIPR assay, inhibition of human NK1 receptor activation (intracellular Ca2+); format: cell-based
T1 construct: Human NK1 receptor cDNA (obtained from RNA-PCR from lung tissue) was subcloned into pRcCMV (Invitrogen); expressed in transfected cells
Procedure: (§1) Chinese Hamster Ovary (CHO) K1 cells (obtained from ATCC) were stably transfected with the human NK2 receptor (hNK2R cDNA in pRc/CMV, Invitrogen) or the human NK3 receptor (hNK3R in pcDNA 3.1/Hygro (+)/IRES/CD8, Invitrogen vector modified at AstraZeneca EST-Bio UK, Alderley Park). The cells were transfected with the cationic lipid reagent LIPOFECTAMINE™ (Invitrogen) and selection was performed with Geneticin (G418, Invitrogen) at 1 mg/ml for the hNK2R transfected cells and with Hygromycin (Invitrogen) at 500 μg/ml for the hNK3R transfected cells. Single cell clones were collected by aid of Fluorescence Activated Cell Sorter (FACS), tested for functionality in a FLIPR assay (see below), expanded in culture and cryopreserved for future use. […]
(§2) The activity of a compound of the invention to inhibit NK1/NK2/NK3 receptor activation measured as NK1/NK2/NK3 receptor mediated increase in intracellular Ca^2+ was assessed by the following procedure:
(§3) CHO cells stably transfected with human NK1, NK2 or NK3 receptors were plated in black walled/clear bottomed 96-well plates (Costar 3904) at 3.5×10^4 cells per well and grown for approximately 24 h in normal growth media in a 37° C. […] The response was measured as the peak relative fluorescence after agonist addition and IC50s were calculated from ten-point concentration-response curves for each compound. […]

human NK3 receptor = target: T2, human NK3 receptor (Homo sapiens, UniProt P29371); assay: FLIPR assay, inhibition of human NK3 receptor activation (intracellular Ca2+); format: cell-based
T2 construct: expressed in transfected cells
T2 sequence (P29371 1-465): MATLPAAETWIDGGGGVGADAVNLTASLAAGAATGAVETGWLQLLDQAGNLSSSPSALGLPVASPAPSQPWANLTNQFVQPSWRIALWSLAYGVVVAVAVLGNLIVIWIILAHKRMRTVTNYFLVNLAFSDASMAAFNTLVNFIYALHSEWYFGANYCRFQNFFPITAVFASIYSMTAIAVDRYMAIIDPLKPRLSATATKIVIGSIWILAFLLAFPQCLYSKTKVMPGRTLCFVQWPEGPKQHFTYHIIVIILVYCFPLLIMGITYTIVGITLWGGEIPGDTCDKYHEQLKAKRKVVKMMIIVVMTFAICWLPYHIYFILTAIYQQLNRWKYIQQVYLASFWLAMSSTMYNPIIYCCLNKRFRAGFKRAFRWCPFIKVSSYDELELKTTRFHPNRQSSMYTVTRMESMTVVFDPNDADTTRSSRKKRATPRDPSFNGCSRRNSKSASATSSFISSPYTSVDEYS
Procedure: as §1, §2, §3

human NK2 receptor = target: T3, human NK2 receptor (Homo sapiens, UniProt P21452); assay: FLIPR assay, inhibition of human NK2 receptor activation (intracellular Ca2+); format: cell-based
T3 construct: expressed in transfected cells
T3 sequence (P21452 1-398): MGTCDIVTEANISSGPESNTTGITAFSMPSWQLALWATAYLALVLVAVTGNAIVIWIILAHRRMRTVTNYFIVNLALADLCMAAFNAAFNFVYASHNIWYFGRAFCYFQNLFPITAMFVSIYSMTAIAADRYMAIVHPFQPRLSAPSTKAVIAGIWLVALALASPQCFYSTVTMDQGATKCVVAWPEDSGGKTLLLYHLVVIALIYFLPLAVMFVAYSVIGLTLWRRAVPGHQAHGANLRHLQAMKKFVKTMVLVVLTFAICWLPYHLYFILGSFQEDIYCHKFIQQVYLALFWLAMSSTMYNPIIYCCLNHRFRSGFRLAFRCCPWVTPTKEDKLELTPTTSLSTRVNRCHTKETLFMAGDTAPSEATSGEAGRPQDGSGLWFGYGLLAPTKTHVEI
Procedure: as §1, §2, §3

[2] = Metabolic stability in liver microsomes (intrinsic clearance); format: in vitro ADME; details: human, pH 7.4, HLM
Procedure: The metabolic stability of compounds according to formula I can be determined as described below: The rate of biotransformation can be measured as either metabolite(s) formation or the rate of disappearance of the parent compound. The experimental design involves incubation of low concentrations of substrate (usually 1.0 μM) with liver microsomes (usually 0.5 mg/ml) and taking out aliquotes at varying time points (usually 0, 5, 10, 15, 20, 30, 40 min.). The test compound is usually dissolved in DMSO. The DMSO concentration in the incubation mixture is usually 0.1% or less since more solvent can drastically reduce the activities of some CYP450s. Incubations are done in 100 mM potassium phosphate buffer, pH 7.4 and at 37° C. Acetonitrile or methanol is used to stop the reaction. The parent compound is analysed by HPLC-MS. From the calculated half-life, t1/2, the intrinsic clearance, Clint, is estimated by taking microsomal protein concentration and liver weight is into account.

T1 sequence (P25103 whole entry): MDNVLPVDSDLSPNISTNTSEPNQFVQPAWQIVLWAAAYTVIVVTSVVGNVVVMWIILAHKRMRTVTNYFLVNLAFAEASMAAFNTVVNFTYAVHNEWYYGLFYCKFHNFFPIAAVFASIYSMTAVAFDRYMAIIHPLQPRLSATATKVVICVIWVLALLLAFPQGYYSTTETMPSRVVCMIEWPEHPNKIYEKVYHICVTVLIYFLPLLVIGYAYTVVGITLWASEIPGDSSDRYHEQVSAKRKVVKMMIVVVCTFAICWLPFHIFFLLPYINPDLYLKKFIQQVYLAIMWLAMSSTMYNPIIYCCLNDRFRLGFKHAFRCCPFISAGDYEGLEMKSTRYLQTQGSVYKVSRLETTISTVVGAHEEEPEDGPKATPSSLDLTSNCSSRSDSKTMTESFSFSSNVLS
Chain of hERG-encoded potassium channel (Q12809 whole entry): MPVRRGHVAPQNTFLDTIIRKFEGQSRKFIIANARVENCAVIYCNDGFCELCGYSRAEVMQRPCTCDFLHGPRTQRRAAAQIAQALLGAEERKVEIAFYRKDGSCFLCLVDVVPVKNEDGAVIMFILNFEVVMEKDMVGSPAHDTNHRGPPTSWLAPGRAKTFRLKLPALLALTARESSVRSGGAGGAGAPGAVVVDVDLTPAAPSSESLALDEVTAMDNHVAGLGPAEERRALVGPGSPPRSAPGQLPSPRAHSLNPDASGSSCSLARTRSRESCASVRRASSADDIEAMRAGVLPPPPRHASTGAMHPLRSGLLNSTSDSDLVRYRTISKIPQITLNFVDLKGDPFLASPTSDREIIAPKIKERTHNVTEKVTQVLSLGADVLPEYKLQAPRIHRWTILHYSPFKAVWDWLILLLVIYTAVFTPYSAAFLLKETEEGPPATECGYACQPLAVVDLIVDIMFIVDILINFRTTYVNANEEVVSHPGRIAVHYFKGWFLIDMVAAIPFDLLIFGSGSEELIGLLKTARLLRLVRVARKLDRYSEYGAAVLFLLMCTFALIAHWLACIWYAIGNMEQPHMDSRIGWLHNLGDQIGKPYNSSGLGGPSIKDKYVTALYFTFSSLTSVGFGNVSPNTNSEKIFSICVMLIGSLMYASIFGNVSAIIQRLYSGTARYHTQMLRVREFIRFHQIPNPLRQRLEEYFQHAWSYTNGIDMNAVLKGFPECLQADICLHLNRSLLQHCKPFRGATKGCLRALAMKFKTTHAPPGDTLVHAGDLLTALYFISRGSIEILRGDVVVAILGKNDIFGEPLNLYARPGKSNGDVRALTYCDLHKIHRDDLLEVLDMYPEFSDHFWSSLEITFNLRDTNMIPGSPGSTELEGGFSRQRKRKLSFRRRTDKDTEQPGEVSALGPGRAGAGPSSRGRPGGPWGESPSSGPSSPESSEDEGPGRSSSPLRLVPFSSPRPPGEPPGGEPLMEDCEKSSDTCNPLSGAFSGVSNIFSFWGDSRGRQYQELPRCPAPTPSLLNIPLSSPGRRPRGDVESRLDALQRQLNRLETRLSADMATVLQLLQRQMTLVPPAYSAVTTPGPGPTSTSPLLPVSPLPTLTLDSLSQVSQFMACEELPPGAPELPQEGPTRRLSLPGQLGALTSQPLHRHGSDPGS

CN(C[C@@H](CCN1CC(N2[C@@H]3CC[C@H]2CC(O)C3)C1)c1ccc(F)cc1)C(=O)c1cc(Br)cc(C(F)(F)F)c1 (stereo partly drawn) [Ex 1, exo-3-Bromo-N-((2S)-2-(4-fluorophenyl)-4-{3-(3-hydroxy-8-azabicyclo[3.2.1]oct-8-yl)azetidin-1-yl}butyl)-N-methyl-5-(trifluoromethyl)benzamide dihydrochloride]
IC50 [1]: 13 µM
Kb (human NK1 receptor): 0.00794 µM
Kb (human NK3 receptor): 0.0126 µM
Kb (human NK2 receptor): 0.00794 µM
microsomal CLint at 1 μM [2]: 28 µL/min/mg
